{"source": "patent US12545748B2", "about": "“Water-soluble 1,3-diphenylguanidine (DPG)-based supramolecular inclusion complex and preparation method and use thereof” (YANGZHOU UNIVERSITY, priority 2021, dated 2026)", "key": {"[1]": {"test": "Thermogravimetric analysis (thermal stability)", "type": "physicochemical", "method": "Taking Examples 2 and 4 as examples, the thermal stability of DPG raw materials, HP-β-CD, β-CDP and their respective inclusion complexes were analyzed by thermogravimetric analysis, and the results were shown in FIG. 4."}, "[2]": {"settings": "in water at 25° C.; cited from earlier work"}, "[3]": {"test": "Solubilization experiment by ultraviolet-visible spectra (244 nm)", "settings": "water, thermodynamic from solid", "from_the_text": "Taking Examples 2 and 4 as examples, the solubilization effect was verified by comparing and analyzing absorption peaks of ultraviolet-visible spectra of the DPG raw material, the DPG-β-CDP inclusion complex, and the DPG-HP-β-CD inclusion complex. The results were shown in FIG. 5, β-CDP and HP-β-CD had no ultraviolet absorption peaks."}, "[4]": {"type": "physicochemical", "method": "1. Determination of Inclusion Ratio and Inclusion Constant of Inclusion Complex by Ultraviolet-Visible Spectroscopy\nAccording to a Benesi-Hildebrand method (J. Am. Chem. Soc. 1949, 71, 8, 2703-2707), it was obtained that: at 25° C., the complexation stability constants of HP-β-CD and β-CDP with DPG were 26.87 L/mol and 27.88 L/mol, respectively."}}, "note": "Read-outs that look alike come from different tables or passages of the source.", "data": [{"compound": "N=C(Nc1ccccc1)Nc1ccccc1", "note": "[DPG, 1,3-diphenylguanidine]", "values": [{"measurement": "second decomposition (temperature)", "setting": "[1]", "result": 256, "unit": "°C"}, {"measurement": "began to decompose (temperature)", "setting": "[1]; first decomposition", "result": 166, "unit": "°C"}, {"measurement": "solubility", "setting": "[2]", "result": "about 315 mg/L"}, {"measurement": "solubility", "setting": "[3]", "result": 315, "unit": "µg/mL"}]}, {"compound": "hydroxypropyl-ß-cyclodextrin [HP-β-CD]", "values": [{"measurement": "complexation stability constant with DPG", "setting": "[4]", "result": 26.87, "unit": "L/mol"}]}, {"compound": "β-cyclodextrin polymer [β-CDP]", "values": [{"measurement": "complexation stability constant with DPG", "setting": "[4]", "result": 27.88, "unit": "L/mol"}]}]}
